Test results from the kinase profiling compilation of Christmann-Franck et al. (2016).

Legend:
Assay in all cases: radiometric filter-binding kinase assay, Kinaseprofiler
ABL2 (human) = ABL2 (human) (UniProt P42684); conditions: ATP 45 µM
ALK (human) = ALK (human) (UniProt Q9UM73); conditions: ATP 200 µM
AURKC (human) = AURKC (human) (UniProt Q9UQB9); conditions: ATP 15 µM
BMX (human) = BMX (human) (UniProt P51813); conditions: ATP 45 µM
CAMK2D (human) = CAMK2D (human) (UniProt Q13557); conditions: ATP 10 µM
CDK2 CCNE1 (human) = CDK2 CCNE1 (human) (UniProt P24941+P24864); conditions: ATP 120 µM
CDK3 CCNE1 (human) = CDK3 CCNE1 (human) (UniProt Q00526+P24864); conditions: ATP 200 µM
CHEK1 (human) = CHEK1 (human) (UniProt O14757); conditions: ATP 90 µM
CHUK (human) = CHUK (human) (UniProt O15111); conditions: ATP 10 µM
CLK3 (human) = CLK3 (human) (UniProt P49761); conditions: ATP 90 µM
EPHA4 (human) = EPHA4 (human) (UniProt P54764); conditions: ATP 15 µM
EPHA5 (human) = EPHA5 (human) (UniProt P54756); conditions: ATP 10 µM
EPHA7 (human) = EPHA7 (human) (UniProt Q15375); conditions: ATP 90 µM
FGFR1 (human) = FGFR1 (human) (UniProt P11362); conditions: ATP 200 µM
FGFR3 (human) = FGFR3 (human) (UniProt P22607); conditions: ATP 15 µM
FGFR4 (human) = FGFR4 (human) (UniProt P22455); conditions: ATP 155 µM
GRK7 (human) = GRK7 (human) (UniProt Q8WTQ7); conditions: ATP 15 µM
[1] = system: GSK3A (human), P49840 [S449A]; conditions: ATP 10 µM
INSRR (human) = INSRR (human) (UniProt P14616); conditions: ATP 200 µM
[2] = target: JAK3 JH1 catalytic (human) (UniProt P52333); conditions: ATP 10 µM
KDR (human) = KDR (human) (UniProt P35968); conditions: ATP 90 µM
MAP2K7 (human) = MAP2K7 (human) (UniProt O14733); conditions: ATP 10 µM
MAPK12 (human) = MAPK12 (human) (UniProt P53778); conditions: ATP 15 µM
MAPKAPK3 (human) = MAPKAPK3 (human) (UniProt Q16644); conditions: ATP 90 µM
NEK3 (human) = NEK3 (human) (UniProt P51956); conditions: ATP 120 µM
[3] = target: PRKAA1 PRKAB1 PRKAG1 (human) (UniProt P54619+Q13131+Q9Y478); conditions: ATP 45 µM
RET (human) = RET (human) (UniProt P07949); conditions: ATP 70 µM
SRPK2 (human) = SRPK2 (human) (UniProt P78362); conditions: ATP 10 µM
TBK1 (human) = TBK1 (human) (UniProt Q9UHD2); conditions: ATP 155 µM
TNK2 (human) = TNK2 (human) (UniProt Q07912); conditions: ATP 70 µM
TYRO3 (human) = TYRO3 (human) (UniProt Q06418); conditions: ATP 45 µM
YES1 (human) = YES1 (human) (UniProt P07947); conditions: ATP 45 µM

CHEK1 (human), sequence (O14757 whole entry, looked up): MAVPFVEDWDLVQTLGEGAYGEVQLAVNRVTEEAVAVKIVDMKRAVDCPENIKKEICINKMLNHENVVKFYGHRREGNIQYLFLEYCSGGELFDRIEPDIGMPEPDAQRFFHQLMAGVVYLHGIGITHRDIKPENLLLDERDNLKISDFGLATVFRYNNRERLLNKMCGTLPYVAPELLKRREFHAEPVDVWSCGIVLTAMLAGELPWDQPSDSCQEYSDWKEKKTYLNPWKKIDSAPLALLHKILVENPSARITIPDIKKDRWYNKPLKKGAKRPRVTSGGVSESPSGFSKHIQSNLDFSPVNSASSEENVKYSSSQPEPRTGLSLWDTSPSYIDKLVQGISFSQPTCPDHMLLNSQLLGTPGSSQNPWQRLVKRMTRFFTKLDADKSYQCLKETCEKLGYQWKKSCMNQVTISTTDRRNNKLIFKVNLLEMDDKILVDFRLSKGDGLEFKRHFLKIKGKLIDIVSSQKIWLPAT
FGFR1 (human), sequence (P11362 whole entry, looked up): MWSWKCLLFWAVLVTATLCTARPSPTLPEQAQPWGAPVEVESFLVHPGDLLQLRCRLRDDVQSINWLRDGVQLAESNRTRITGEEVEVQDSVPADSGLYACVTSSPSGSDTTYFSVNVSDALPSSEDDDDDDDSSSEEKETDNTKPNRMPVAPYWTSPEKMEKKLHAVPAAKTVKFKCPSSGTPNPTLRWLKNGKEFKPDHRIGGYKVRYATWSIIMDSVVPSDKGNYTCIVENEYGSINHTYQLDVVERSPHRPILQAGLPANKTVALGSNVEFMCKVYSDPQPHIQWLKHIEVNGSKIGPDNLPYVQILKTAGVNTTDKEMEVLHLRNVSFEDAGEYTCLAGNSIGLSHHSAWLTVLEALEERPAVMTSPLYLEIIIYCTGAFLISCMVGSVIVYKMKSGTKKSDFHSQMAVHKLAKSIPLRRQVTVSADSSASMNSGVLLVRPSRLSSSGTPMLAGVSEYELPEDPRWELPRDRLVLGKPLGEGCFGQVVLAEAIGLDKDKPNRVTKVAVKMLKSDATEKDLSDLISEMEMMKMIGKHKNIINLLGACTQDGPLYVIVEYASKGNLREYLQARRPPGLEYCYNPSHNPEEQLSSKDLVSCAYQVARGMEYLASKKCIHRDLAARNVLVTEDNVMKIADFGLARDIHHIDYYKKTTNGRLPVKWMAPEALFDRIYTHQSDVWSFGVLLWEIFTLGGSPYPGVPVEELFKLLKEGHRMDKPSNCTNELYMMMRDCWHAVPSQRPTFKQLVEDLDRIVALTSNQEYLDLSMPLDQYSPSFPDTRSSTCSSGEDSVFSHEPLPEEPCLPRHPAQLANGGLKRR
GRK7 (human), sequence (Q8WTQ7 whole entry, looked up): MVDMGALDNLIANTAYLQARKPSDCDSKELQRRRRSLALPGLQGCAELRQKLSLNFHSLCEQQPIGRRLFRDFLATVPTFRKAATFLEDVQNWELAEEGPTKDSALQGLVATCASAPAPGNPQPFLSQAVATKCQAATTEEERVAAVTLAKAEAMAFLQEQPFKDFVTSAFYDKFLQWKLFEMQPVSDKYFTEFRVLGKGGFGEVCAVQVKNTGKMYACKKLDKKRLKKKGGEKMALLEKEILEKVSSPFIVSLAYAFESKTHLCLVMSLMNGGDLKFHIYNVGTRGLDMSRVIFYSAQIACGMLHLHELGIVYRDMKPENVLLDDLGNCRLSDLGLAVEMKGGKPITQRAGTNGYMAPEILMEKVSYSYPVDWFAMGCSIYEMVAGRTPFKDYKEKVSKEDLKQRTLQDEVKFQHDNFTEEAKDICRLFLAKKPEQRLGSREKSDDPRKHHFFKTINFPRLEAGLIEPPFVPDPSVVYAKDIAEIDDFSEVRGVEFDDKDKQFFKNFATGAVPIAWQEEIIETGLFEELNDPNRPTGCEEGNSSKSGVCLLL
JAK3 JH1 catalytic (human), sequence (P52333 whole entry, looked up): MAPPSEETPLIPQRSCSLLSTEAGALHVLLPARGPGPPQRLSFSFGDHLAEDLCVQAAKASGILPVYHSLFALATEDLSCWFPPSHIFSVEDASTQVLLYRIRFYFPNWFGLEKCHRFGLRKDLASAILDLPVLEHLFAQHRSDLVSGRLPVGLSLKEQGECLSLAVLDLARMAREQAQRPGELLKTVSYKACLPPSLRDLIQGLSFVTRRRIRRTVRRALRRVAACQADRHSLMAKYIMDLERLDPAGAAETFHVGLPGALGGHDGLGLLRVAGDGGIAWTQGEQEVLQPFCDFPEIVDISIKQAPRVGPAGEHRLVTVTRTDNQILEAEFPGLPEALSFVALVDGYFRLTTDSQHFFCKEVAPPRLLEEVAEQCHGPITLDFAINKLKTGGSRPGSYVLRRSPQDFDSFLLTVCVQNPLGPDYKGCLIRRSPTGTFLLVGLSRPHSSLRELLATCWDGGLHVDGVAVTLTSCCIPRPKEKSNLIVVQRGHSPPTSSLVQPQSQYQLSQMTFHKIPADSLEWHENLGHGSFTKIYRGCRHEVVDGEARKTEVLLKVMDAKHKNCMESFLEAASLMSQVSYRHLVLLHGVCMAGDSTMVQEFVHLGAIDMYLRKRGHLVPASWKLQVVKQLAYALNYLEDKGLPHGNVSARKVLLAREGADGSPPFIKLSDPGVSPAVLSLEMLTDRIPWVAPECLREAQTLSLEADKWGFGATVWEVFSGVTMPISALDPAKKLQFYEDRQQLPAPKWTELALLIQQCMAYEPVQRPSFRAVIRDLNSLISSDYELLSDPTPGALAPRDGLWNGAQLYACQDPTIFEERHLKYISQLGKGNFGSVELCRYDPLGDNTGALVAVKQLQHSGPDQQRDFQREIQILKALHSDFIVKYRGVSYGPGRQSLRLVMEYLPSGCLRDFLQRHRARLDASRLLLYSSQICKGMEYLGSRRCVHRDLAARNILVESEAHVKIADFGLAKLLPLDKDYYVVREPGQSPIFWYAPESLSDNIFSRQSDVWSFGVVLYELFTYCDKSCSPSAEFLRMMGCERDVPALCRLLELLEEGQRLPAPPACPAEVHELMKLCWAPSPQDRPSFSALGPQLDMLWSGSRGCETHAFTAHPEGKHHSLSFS
SRPK2 (human), sequence (P78362 whole entry, looked up): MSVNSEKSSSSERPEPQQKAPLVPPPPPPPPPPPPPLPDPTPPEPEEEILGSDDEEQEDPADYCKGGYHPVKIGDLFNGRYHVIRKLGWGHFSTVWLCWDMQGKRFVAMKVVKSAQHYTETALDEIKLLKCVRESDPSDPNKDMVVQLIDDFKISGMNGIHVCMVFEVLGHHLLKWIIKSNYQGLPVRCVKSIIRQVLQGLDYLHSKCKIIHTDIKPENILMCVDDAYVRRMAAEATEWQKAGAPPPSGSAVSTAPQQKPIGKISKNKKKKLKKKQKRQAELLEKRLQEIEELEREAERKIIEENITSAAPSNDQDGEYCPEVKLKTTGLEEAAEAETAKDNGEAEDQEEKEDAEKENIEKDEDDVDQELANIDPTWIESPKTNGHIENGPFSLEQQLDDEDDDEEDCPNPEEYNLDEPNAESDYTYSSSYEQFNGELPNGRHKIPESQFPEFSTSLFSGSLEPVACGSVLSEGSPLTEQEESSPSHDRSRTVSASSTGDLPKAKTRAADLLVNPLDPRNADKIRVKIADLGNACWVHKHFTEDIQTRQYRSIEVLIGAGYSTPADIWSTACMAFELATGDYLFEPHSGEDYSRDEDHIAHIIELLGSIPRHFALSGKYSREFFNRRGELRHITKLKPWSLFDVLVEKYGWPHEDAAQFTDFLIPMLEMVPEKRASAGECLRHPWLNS
NEK3 (human), sequence (P51956 whole entry, looked up): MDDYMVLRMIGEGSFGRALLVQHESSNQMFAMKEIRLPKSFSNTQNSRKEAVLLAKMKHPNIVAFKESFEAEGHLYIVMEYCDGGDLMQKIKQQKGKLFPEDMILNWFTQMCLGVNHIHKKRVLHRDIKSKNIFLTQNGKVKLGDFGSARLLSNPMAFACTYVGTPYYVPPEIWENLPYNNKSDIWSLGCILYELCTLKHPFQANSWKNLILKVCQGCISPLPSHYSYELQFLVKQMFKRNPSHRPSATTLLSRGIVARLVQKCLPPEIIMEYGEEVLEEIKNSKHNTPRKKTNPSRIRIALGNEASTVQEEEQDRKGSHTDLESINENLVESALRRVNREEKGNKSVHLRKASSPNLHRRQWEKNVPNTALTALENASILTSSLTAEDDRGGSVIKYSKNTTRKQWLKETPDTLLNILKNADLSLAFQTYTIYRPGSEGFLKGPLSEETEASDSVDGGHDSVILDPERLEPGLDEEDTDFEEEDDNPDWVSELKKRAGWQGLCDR
CDK3 CCNE1 (human), sequence (P24864 whole entry, looked up): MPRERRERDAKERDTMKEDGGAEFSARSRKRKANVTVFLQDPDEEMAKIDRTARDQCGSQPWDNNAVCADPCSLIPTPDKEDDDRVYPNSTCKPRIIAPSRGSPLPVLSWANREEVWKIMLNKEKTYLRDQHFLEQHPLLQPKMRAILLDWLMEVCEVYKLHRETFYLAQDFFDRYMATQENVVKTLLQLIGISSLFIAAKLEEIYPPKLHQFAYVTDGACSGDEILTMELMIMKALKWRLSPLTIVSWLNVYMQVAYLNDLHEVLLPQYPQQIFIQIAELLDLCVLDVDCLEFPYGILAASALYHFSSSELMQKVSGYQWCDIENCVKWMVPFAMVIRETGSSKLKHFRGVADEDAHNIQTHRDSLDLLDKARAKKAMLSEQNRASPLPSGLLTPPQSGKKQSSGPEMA
CDK3 CCNE1 (human), sequence (Q00526 whole entry, looked up): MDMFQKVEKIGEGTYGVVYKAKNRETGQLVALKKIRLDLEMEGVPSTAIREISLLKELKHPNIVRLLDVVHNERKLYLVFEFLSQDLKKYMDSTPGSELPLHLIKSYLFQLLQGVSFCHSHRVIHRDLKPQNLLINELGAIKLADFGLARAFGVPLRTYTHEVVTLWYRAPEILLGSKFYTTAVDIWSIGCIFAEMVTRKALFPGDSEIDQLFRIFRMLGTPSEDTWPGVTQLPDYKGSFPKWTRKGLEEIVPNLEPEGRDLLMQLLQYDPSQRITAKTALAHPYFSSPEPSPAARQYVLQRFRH
CDK2 CCNE1 (human), sequence (P24864 whole entry, looked up, other chains not shown): as the sequence (P24864 whole entry, looked up) above

`O=C1c2ccccc2-c2n[nH]c3cccc1c23` showed a residual activity (ABL2 (human); compound 1.0 µM) of 87%, a residual activity (ABL2 (human); compound 10.0 µM) of 72% and a residual activity (ALK (human); compound 1.0 µM) of 61%. The residual activity (ALK (human); compound 10.0 µM) was 29%, the residual activity (AURKC (human); compound 1.0 µM) was 9% and the residual activity (AURKC (human); compound 10.0 µM) was 4%. For the same compound, the residual activity (BMX (human); compound 1.0 µM) was 59%, the residual activity (BMX (human); compound 10.0 µM) was 18% and the residual activity (CAMK2D (human); compound 1.0 µM) was 43%. For the same compound, the residual activity (CAMK2D (human); compound 10.0 µM) was 8%, the residual activity (CDK2 CCNE1 (human); compound 1.0 µM) was 8% and the residual activity (CDK2 CCNE1 (human); compound 10.0 µM) was 3%. For the same compound, the residual activity (CDK3 CCNE1 (human); compound 1.0 µM) was 26%, the residual activity (CDK3 CCNE1 (human); compound 10.0 µM) was 14% and the residual activity (CHEK1 (human); compound 1.0 µM) was 72%. It also gave a residual activity (CHEK1 (human); compound 10.0 µM) of 32%, a residual activity (CHUK (human); compound 1.0 µM) of 57% and a residual activity (CHUK (human); compound 10.0 µM) of 21%. It also gave a residual activity (CLK3 (human); compound 1.0 µM) of 72%, a residual activity (CLK3 (human); compound 10.0 µM) of 34% and a residual activity (EPHA4 (human); compound 1.0 µM) of 105%. For the same compound, the residual activity (EPHA4 (human); compound 10.0 µM) was 106%, the residual activity (EPHA5 (human); compound 1.0 µM) was 115% and the residual activity (EPHA5 (human); compound 10.0 µM) was 63%. It also gave a residual activity (EPHA7 (human); compound 1.0 µM) of 80%, a residual activity (EPHA7 (human); compound 10.0 µM) of 41% and a residual activity (FGFR1 (human); compound 1.0 µM) of 39%. It also gave a residual activity (FGFR1 (human); compound 10.0 µM) of 4%, a residual activity (FGFR3 (human); compound 1.0 µM) of 72% and a residual activity (FGFR3 (human); compound 10.0 µM) of 40%. For the same compound, the residual activity (FGFR4 (human); compound 1.0 µM) was 110%, the residual activity (FGFR4 (human); compound 10.0 µM) was 89% and the residual activity (GRK7 (human); compound 1.0 µM) was 71%. It also gave a residual activity (GRK7 (human); compound 10.0 µM) of 27%, a residual activity ([1]; compound 1.0 µM) of 54% and a residual activity ([1]; compound 10.0 µM) of 40%. For the same compound, the residual activity (INSRR (human); compound 1.0 µM) was 102%, the residual activity (INSRR (human); compound 10.0 µM) was 51% and the residual activity ([2]; compound 1.0 µM) was 57%. The residual activity ([2]; compound 10.0 µM) was 9%, the residual activity (KDR (human); compound 1.0 µM) was 17% and the residual activity (KDR (human); compound 10.0 µM) was 3%. For the same compound, the residual activity (MAP2K7 (human); compound 1.0 µM) was 58%, the residual activity (MAP2K7 (human); compound 10.0 µM) was 6% and the residual activity (MAPK12 (human); compound 1.0 µM) was 82%. The residual activity (MAPK12 (human); compound 10.0 µM) was 61%, the residual activity (MAPKAPK3 (human); compound 1.0 µM) was 100% and the residual activity (MAPKAPK3 (human); compound 10.0 µM) was 103%. It also gave a residual activity (NEK3 (human); compound 1.0 µM) of 70%, a residual activity (NEK3 (human); compound 10.0 µM) of 79% and a residual activity ([3]; compound 1.0 µM) of 64%. It also gave a residual activity ([3]; compound 10.0 µM) of 24%, a residual activity (RET (human); compound 1.0 µM) of 43% and a residual activity (RET (human); compound 10.0 µM) of 11%. For the same compound, the residual activity (SRPK2 (human); compound 1.0 µM) was 97%, the residual activity (SRPK2 (human); compound 10.0 µM) was 57% and the residual activity (TBK1 (human); compound 1.0 µM) was 35%. For the same compound, the residual activity (TBK1 (human); compound 10.0 µM) was 11%, the residual activity (TNK2 (human); compound 1.0 µM) was 50% and the residual activity (TNK2 (human); compound 10.0 µM) was 12%. For the same compound, the residual activity (TYRO3 (human); compound 1.0 µM) was 97%, the residual activity (TYRO3 (human); compound 10.0 µM) was 81% and the residual activity (YES1 (human); compound 1.0 µM) was 98%. For the same compound, the residual activity (YES1 (human); compound 10.0 µM) was 51%.
